Data on eight molecules can be found in US20240360133A1, “FUSED TRICYCLIC COMPOUND, PREPARATION METHOD THEREFOR AND APPLICATION THEREOF IN MEDICINE” (Jiangsu Hengrui Pharmaceuticals Co., Ltd., priority 2020, published 2024).

The assay addresses T1, human TLR7 (Homo sapiens, UniProt Q9NYK1).
T1 construct: host or cells: HEK-Blue hTLR7 (HEK293)
T1 sequence (Q9NYK1 27-1049): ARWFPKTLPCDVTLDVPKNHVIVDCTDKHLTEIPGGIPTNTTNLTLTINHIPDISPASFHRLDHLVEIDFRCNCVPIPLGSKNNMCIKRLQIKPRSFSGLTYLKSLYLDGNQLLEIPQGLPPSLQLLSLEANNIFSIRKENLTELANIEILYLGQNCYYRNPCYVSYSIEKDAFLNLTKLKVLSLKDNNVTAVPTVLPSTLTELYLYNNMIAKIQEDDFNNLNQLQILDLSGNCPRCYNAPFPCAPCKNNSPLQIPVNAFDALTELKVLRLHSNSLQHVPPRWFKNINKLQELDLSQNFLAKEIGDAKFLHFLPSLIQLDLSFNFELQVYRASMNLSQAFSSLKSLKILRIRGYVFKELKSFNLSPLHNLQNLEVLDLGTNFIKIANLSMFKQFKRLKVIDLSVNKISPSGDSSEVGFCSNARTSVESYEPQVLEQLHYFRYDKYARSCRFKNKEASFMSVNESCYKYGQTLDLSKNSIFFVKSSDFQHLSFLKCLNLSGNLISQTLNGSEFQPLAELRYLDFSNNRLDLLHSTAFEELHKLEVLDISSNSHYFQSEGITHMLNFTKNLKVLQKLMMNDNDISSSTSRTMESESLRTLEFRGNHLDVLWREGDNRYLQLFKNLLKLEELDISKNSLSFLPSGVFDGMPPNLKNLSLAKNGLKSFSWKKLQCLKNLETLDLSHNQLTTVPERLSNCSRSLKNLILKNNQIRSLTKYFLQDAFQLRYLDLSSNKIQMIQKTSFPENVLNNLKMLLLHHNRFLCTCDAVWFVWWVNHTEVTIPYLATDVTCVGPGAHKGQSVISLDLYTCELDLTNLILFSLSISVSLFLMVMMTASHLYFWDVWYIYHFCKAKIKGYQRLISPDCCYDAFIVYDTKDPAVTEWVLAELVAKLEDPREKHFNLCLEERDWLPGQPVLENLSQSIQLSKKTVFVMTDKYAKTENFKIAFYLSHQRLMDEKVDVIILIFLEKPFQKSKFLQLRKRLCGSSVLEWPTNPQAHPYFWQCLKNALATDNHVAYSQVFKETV
In words: Inhibitory effect on human TLR7 activation pathway (HEK-Blue hTLR7 SEAP reporter). The class given is cell-based. To be noted: HEK-Blue hTLR7 cells, 1 μM resiquimod, 20 h, SEAP OD620. The protocol:
• 1. HEK-Blue™ hTLR7 cell (Invivogen) • 2. Resiquimod (R848, Invivogen) • 3. Alkaline phosphatase detection medium (Quanti-Blue Detection, Invivogen) • 4. Blasticidin (Invivogen) • 5. Zeocin (Invivogen) • 6. Normocin (Invivogen) • 7. DMEM/HIGH Glucose (GE Healthcare) • 8. Fetal bovine serum (FBS, Gibco) • 9. Phosphate-buffered saline (Shanghai BasalMedia Technologies Co., Ltd.) • 10. Sterile purified water (made in-house by Shanghai Hengrui) • 11. 15 mL centrifuge tube (Corning) • 12. %-well formulating plate (Corning) • 13. 96-well flat-bottom cell culture plate (Corning) • 14. Constant-temperature cell incubator (Thermo scientific) • 15. Constant-temperature incubator (Shanghai Yiheng Scientific Instruments Co., Ltd.) • 16. PHERAstar FS microplate reader (BMG Labtech)
HEK-Blue™ hTLR7 cells were purchased from Invivogen. These cells are HEK293 cells transfected with the human Toll-like receptor 7 (TLR7) gene and the secreted alkaline phosphatase reporter gene (SEAP). The alkaline phosphatase reporter gene (SEAP) is under the regulation of the IFN—P minimal promoter comprising 5 NF-kB and AP-1 binding sites. Upon activation of TLR7 with an agonist, SEAP secretion is induced via downstream NF-kB and AP-1. After addition of an antagonist compound, the pathway described above is inhibited, and SEAP secretion is reduced. The activity of the compounds for the TLR7 pathway was evaluated by measuring OD620 through the SEAP substrate.
20 mM test compounds dissolved in 100% DMSO were serially diluted with 100% DMSO to 2000, 400, 80, 16, 3.2, 0.64, 0.128, 0.0256 μM, with blank wells containing 100% DMSO. The compounds and 100% DMSO were then 20-fold diluted in DMEM/HIGH glucose media containing 10% inactivated FBS (complete media, the same applies below). Resiquimod was diluted to 10 μM with sterile water. The 10 μM resiquimod dilution in sterile water was added to a 96-well cell culture plate at 20 μL/well. The above compounds diluted in complete media and 100% DMSO were then added at 20 μL/well to wells containing resiquimod, 20 μL of sterile water and 20 μL of 100% DMSO diluted in the complete medium were added to negative control wells.
HEK-Blue™ hTLR7 cells were cultured in a DMEM/HIGH glucose medium containing 10% inactivated FBS, 100 μg/mL Normocin, 10 μg/mL blasticidin, and 100 μg/mL Zeocin. Cells that were in a good state of growth and had grown to 70%-80% were collected. The growth medium was discarded, 5-10 mL of PBS pre-heated at 37° C. was added to wash the cells once, and 2-5 mL of pre-heated PBS was added. The cells were cultured at 37° C. for 1-2 min, dispersed by pipetting, transferred to a 15 mL centrifuge tube, and counted, and the cell density was adjusted to 4.8-10′/mL with the complete medium. After density adjustment, 160 μL of the resulting cell suspension was added to the above 96-well cell culture plate to a final number of cells per well of 76,500/well. The final concentration of resiquimod was 1 μM, and the final concentrations of the test compounds were 10,000, 2000, 400, 80, 16, 3.2, 0.64, and 0.128 nM. The cells were cultured in a 37° C., 5% CO2 incubator for 20 h. Then 20 μL of the supernatant was added to 180 μL of the prepared alkaline phosphatase detection medium and incubated in the dark in a constant-temperature incubator at 37° C. for 120 min. Then the OD620 absorbance readings were taken on a microplate reader. The inhibition rate was calculated using the following formula: […]
Inhibition curves were plotted using Graphpad Prism software according to the concentrations of the compounds and the corresponding inhibition rates, and the concentrations of the compounds at which the inhibition rate reached 50%, i.e., IC50 values, were calculated and are shown in Table 1.
A word on the IC50: it is the concentration that inhibits the measured activity by half. Low readings indicate greater potency in that assay, high ones weaker potency in that assay. For `Cc1cc(-c2[nH]c3cc4c(nc3c2C(C)C)CNCC4)cc(C)n1` [Example 1, 2-(2,6-Dimethylpyridin-4-yl)-3-isopropyl-5,6,7,8-tetrahydro-1H-pyrrolo[3,2-b][1,7]naphthyridine], the midpoint of inhibition, the IC50, lay at 7.7 nM. `Cc1cc(-c2[nH]c3cc4c(nc3c2C(C)C)CN(C(C)C)CC4)cc(C)n1` [Example 2, 2-(2,6-Dimethylpyridin-4-yl)-3,6-diisopropyl-5,6,7,8-tetrahydro-1H-pyrrolo[3,2-b][1,7]naphthyridine] came in with an IC50 of 29.9 nM.

Molecule `Cc1cc(-c2[nH]c3cc4c(nc3c2C(C)C)CN(CCc2ccc(N3CCNCC3)nc2)CC4)cc(C)n1` [Example 4, 2-(2,6-Dimethylpyridin-4-yl)-3-isopropyl-6-(2-(6-(piperazin-4-yl)pyridin-3-yl)ethyl)-5,6,7,8-tetrahydro-1H-pyrrolo[3,2-b][1,7]naphthyridine] had an IC50 of 6.8 nM. For the molecule `Cc1cc(-c2[nH]c3cc4c(nc3c2C(C)C)CN(Cc2ccc(N3CCNCC3)cn2)CC4)cc(C)n1` [Example 5, 2-(2,6-Dimethylpyridin-4-yl)-3-isopropyl-6-((5-(piperazin-1-yl)pyridin-2-yl)methyl)-5,6,7,8-tetrahydro-1H-pyrrolo[3,2-b][1,7]naphthyridine], half-maximal inhibition (IC50) was put at 5.7 nM. For `Cc1cc(-c2[nH]c3cc4c(nc3c2C(C)C)CN(CC23CCC(N)(CC2)CC3)CC4)cc(C)n1` [Example 7, 4-((2-(2,6-Dimethylpyridin-4-yl)-3-isopropyl-1,5,7,8-tetrahydro-6H-pyrrolo[3,2-b][1,7]naphthyridin-6-yl)methyl)bicyclo[2.2.2]octyl-1-amine] the value was 7.1 nM; for `Cc1cc(-c2[nH]c3cc4c(nc3c2C(C)C)CN(CC(N)=O)CC4)cc(C)n1` [Example 8, 2-(2-(2,6-Dimethylpyridin-4-yl)-3-isopropyl-1,5,7,8-tetrahydro-6H-pyrrolo[3,2-b][1,7]naphthyridin-6-yl)acetamide], 18.2 nM; for `Cc1c(-c2[nH]c3cc4c(nc3c2C(C)C)CNCC4)cn2ncnc2c1C` [Example 9, 2-(7,8-Dimethyl-[1,2,4]triazolo[1,5-a]pyridin-6-yl)-3-isopropyl-5,6,7,8-tetrahydro-1H-pyrrolo[3,2-b][1,7]naphthyridine], 4.9 nM. In turn, `Cc1c(-c2[nH]c3cc4c(nc3c2C(C)C)CN(CC(N)=O)CC4)cn2ncnc2c1C` [Example 10, 2-(2-(7,8-Dimethyl-[1,2,4]triazolo[1,5-a]pyridin-6-yl)-3-isopropyl-1,5,7,8-tetrahydro-6H-pyrrolo[3,2-b][1,7]naphthyridin-6-yl)acetamide] gave an IC50 of 21.5 nM.
